The target in the test is human P2X7 receptor (Homo sapiens (Human), UniProt Q99572). Description: Pore permeation assay (YO PRO dye uptake). It counts as cell-based. The protocol:
Agonist-induced pore formation was determined by measuring cellular uptake of YO PRO fluorescence dye in HEK293 transfected with human P2X7 receptor. A HEK293 cell over expressing human P2X7 was harvested using HQTase reagent to detach the cells from T75 cm flask. The harvested cells are centrifuged @1200 rpm for 5 min at room temperature. The viability of cells was determined by Trypan blue dye and the cells are plated @10,000 cell/well in 50 ul volume in a 384W BD Poly lysine coated plate and incubated overnight at 37 C. […] The plate was centrifuged at 1000 rpm for 5 seconds and incubated at room temperature for 30 minutes. The uptake of YO PRO dye into the cells was measured using Envision Fluorescence plate reader instrument (Perkin Elmer).

Setting [1] is: HEK293 transfected with human P2X7, BzATP 10 uM, YO PRO dye uptake, read-out: hP2X7 IC50.

Read-outs that look alike come from different tables or passages of the source. Bounds are passed on as bounds.

This note sets out measurements from US10323000B2, “Indole derivatives and their use in neurodegenerative diseases” (priority 2014, dated 2019).

Sequence of human P2X7 receptor (Q99572 whole entry): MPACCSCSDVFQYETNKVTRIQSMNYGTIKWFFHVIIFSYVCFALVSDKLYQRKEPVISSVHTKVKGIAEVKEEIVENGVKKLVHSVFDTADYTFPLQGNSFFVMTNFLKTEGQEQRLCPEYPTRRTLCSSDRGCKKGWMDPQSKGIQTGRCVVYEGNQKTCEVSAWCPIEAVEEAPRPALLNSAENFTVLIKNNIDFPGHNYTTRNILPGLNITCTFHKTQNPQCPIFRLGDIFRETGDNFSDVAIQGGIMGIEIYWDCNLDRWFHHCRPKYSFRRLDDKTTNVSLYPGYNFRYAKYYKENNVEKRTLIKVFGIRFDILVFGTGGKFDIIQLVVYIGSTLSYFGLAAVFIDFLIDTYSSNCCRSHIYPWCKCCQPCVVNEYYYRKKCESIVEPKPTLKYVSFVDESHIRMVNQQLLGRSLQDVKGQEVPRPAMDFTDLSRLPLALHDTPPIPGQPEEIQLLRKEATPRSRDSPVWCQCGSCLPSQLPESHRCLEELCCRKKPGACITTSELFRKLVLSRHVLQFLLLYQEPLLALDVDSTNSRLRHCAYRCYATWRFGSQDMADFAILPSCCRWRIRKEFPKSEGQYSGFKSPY

Take `CC(C)(NC(=O)c1cn(C2COC2)c2cccc(Cl)c12)[C@]12C[C@H]3C[C@H](C[C@H](C3)C1)C2` [Compound 54, 4-Chloro-1-oxetan-3-yl-1H-indole-3-carboxylic acid (1-adamantan-1-yl-1-methyl-ethyl)-amide]: under setting [1], the IC50 was in the range of 101 to 500 nM.
As for `COCCn1cc(C(=O)NCc2nc3ccccc3s2)c2c(Cl)cccc21` [Compound 31, N-(benzo[d]thiazol-2-ylmethyl)-4-chloro-1-(2-methoxyethyl)-1H-indole-3-carboxamide], the IC50 under setting [1] was over 1000 nM.
As to `O=C(NCC1CCC(F)(F)CC1)c1cn(C2CC3(CNC3)C2)c2cccc(Cl)c12` (centres unmarked) [Compound 172, 4-chloro-N-((4,4-difluorocyclohexyl)methyl)-1-(2-azaspiro[3.3]heptan-6-yl)-1H-indole-3-carboxamide], the IC50 lay within 500 to 999 nM.
For the compound `O=C(NCC1(O)CCCC(C(F)(F)F)C1)c1cn(C2COC2)c2cccc(Cl)c12` (centres unmarked) [Compound 47, 4-chloro-N-((1-hydroxy-3-(trifluoromethyl)cyclohexyl)methyl)-1-(oxetan-3-yl)-1H-indole-3-carboxamide], the IC50 under setting [1] is over 1000 nM.
Regarding `CC(O)(CNC(=O)c1cn(C2COC2)c2cccc(Cl)c12)C1CCCC1` (centres unmarked) [Compound 49, 4-Chloro-1-oxetan-3-yl-1H-indole-3-carboxylic acid (2-cyclopentyl-2-hydroxy-propyl)-amide], the IC50 fell in the range of 500 to 999 nM.
`O=C(NC(CCO)C1CCCCC1)c1cn(C2CCOC2)c2cccc(Cl)c12` (centres unmarked) [Compound 110, 4-Chloro-1-(tetrahydro-furan-3-yl)-1H-indole-3-carboxylic acid (1-cyclohexyl-3-hydroxy-propyl)-amide] yielded an IC50 of 101 to 500 nM.
The same measure, in the same setting: with `O=C(NCC1(O)CCC(F)(F)CC1)c1cn(C2CCOC2)c2cccc(Cl)c12` (centres unmarked) [Compound 104, 4-Chloro-1-(tetrahydro-furan-3-yl)-1H-indole-3-carboxylic acid (4,4-difluoro-1-hydroxy-cyclohexylmethyl)-amide] the figure was 101 to 500 nM.
On to `COCCn1cc(C(=O)NCc2ccc(C(F)(F)F)cc2)c2c(Cl)cccc21` [Compound 26, 4-Chloro-1-(2-methoxy-ethyl)-1H-indole-3-carboxylic acid 4-trifluoro methyl-benzylamide], for which, under setting [1], the IC50 was over 1000 nM.
Regarding `O=C(NC(C1CCCCC1)C(F)(F)F)c1cn(C2COC2)c2cccc(Cl)c12` (centres unmarked) [Compound 43, 4-chloro-N-(1-cyclohexyl-2,2,2-trifluoroethyl)-1-(oxetan-3-yl)-1H-indole-3-carboxamide], the IC50 under setting [1] is over 1000 nM.
`CC(C)(CNC(=O)c1cn(C2COC2)c2cccc(Cl)c12)C1CCCC1` [Compound 50, 4-Chloro-1-oxetan-3-yl-1H-indole-3-carboxylic acid (2-cyclopentyl-2-methyl-propyl)-amide] displayed an IC50 of 101 to 500 nM.
On the same count and under the same terms, with `COCCn1cc(C(=O)NCc2ccccc2C(F)(F)F)c2c(Cl)cccc21` [Compound 24, 4-Chloro-1-(2-methoxy-ethyl)-1H-indole-3-carboxylic acid 2-trifluoromethyl-benzylamide] the figure was 500 to 999 nM.
For the compound `COCCn1cc(C(=O)NCc2ccco2)c2c(Cl)cccc21` [Compound 28, 4-Chloro-1-(2-methoxy-ethyl)-1H-indole-3-carboxylic acid (furan-2-ylmethyl)-amide], the IC50 under setting [1] is over 1000 nM.
`CC1CC(O)(CNC(=O)c2cn(C3CCCO3)c3cccc(Cl)c23)CCC1(F)F` (centres unmarked) [Compound 97, 4-chloro-N-((4,4-difluoro-1-hydroxy-3-methylcyclohexyl)methyl)-1-(tetrahydrofuran-2-yl)-1H-indole-3-carboxamide] gave an IC50 of 101 to 500 nM.
As for `O=C(NCC1(O)CCCC(C(F)(F)F)C1)c1cn(CC2CCCO2)c2cccc(Cl)c12` (centres unmarked) [Compound 136, 4-chloro-N-((1-hydroxy-3-(trifluoromethyl)cyclohexyl)methyl)-1-((tetrahydrofuran-2-yl)methyl)-1H-indole-3-carboxamide], under setting [1], the IC50 was over 1000 nM.
Still for that read-out and setting: with “4-Chloro-1-(tetrahydro-furan-3-yl)-1H-indole-3-carboxylic acid (2-cyclopentyl-2-hydroxy-propyl)-amide [Compound 102]” the figure was over 1000 nM.
With `O=C(NCC1(O)CCCC(F)(F)C1)c1cn(CCN2CCCCC2)c2cccc(Cl)c12` (centres unmarked) [Compound 192, 4-chloro-N-((3,3-difluoro-1-hydroxycyclohexyl)methyl)-1-(2-(piperidin-1-yl)ethyl)-1H-indole-3-carboxamide], the IC50 was 101 to 500 nM.
On to `O=C(N[C@@H](C1CCCCC1)C(F)(F)F)c1cn(C2COC2)c2cccc(Cl)c12` [Compound 52, 4-Chloro-1-oxetan-3-yl-1H-indole-3-carboxylic acid ((S)-1-cyclohexyl-2,2,2-trifluoro-ethyl)-amide], for which the IC50 lay within 500 to 999 nM.
The same measure, in the same setting: with `O=C(NCC(F)F)c1cn(C2COC2)c2cccc(Cl)c12` [Compound 76, 4-Chloro-1-oxetan-3-yl-1H-indole-3-carboxylic acid (2,2-difluoro-ethyl)-amide] the figure was over 1000 nM.
Same read-out and setting: with `O=C(NCC1CCC(F)(F)CC1)c1cn(CCC(F)F)c2cccc(Cl)c12` [Compound 11, 4-Chloro-1-(3,3-difluoro-propyl)-1H-indole-3-carboxylic acid (4,4-di fluoro-cyclohexyl methyl)-amide] the figure was 10 to 100 nM; with `CC1CC(O)(CNC(=O)c2cn(C3COC3)c3cccc(Cl)c23)CCC1(F)F` (centres unmarked) [Compound 46, 4-chloro-N-((4,4-difluoro-1-hydroxy-3-methylcyclohexyl)methyl)-1-(oxetan-3-yl)-1H-indole-3-carboxamide], 101 to 500 nM.
For the compound `CC1(CCNC(=O)c2cn(C3COC3)c3cccc(Cl)c23)OCCO1` [Compound 71, 4-Chloro-1-oxetan-3-yl-1H-indole-3-carboxylic acid [2-(2-methyl-dioxolan-2-yl)-ethyl]-amide], under setting [1], the IC50 was over 1000 nM.
`COCCn1cc(C(=O)NC2COc3ccccc3C2)c2c(Cl)cccc21` (centres unmarked) [Compound 29, 4-Chloro-1-(2-methoxy-ethyl)-1H-indole-3-carboxylic acid chroman-3-ylamide] showed an IC50 of 101 to 500 nM.
On to `COCCn1cc(C(=O)NCc2ccc3c(c2)OCO3)c2c(Cl)cccc21` [Compound 27, 4-Chloro-1-(2-methoxy-ethyl)-1H-indole-3-carboxylic acid (benzo [1,3]dioxol-5-ylmethyl)-amide], for which the IC50 under setting [1] is over 1000 nM.
The compound `COCCn1cc(C(=O)NCc2ccccc2F)c2c(Cl)cccc21` [Compound 25, 4-Chloro-1-(2-methoxy-ethyl)-1H-indole-3-carboxylic acid 2-fluoro-benzylamide] gave an IC50 of 500 to 999 nM.
On to `O=C(NCCC(F)(F)F)c1cn(C2COC2)c2cccc(Cl)c12` [Compound 77, 4-Chloro-1-oxetan-3-yl-1H-indole-3-carboxylic acid (3,3,3-trifluoro-propyl)-amide], for which the IC50 under setting [1] is over 1000 nM.
On the same count and under the same terms, with `O=C(NC(c1cccs1)C1CCCCC1)c1cn(C2COC2)c2cccc(Cl)c12` (centres unmarked) [Compound 60, 4-Chloro-1-oxetan-3-yl-1H-indole-3-carboxylic acid (cyclohexyl-thiophen-2-yl-methyl)-amide] the figure was over 1000 nM.
`COCCn1cc(C(=O)NC[C@@]2(O)CCC[C@@H](C)C2)c2c(Cl)cccc21` [Compound 15, 4-Chloro-1-(2-methoxy-ethyl)-1H-indole-3-carboxylic acid ((1R,3R)-1-hydroxy-3-methyl-cyclohexylmethyl)-amide] gave an IC50 of 10 to 100 nM.
For the compound `CN(C)C(CNC(=O)c1cn(C2CCOC2)c2cccc(Cl)c12)C1CCCCC1` (centres unmarked) [Compound 111, 4-Chloro-1-(tetrahydro-furan-3-yl)-1H-indole-3-carboxylic acid (2-cyclohexyl-2-dimethylamino-ethyl)-amide], under setting [1], the IC50 is over 1000 nM.
On the same count and under the same terms, with `C[C@@H](NC(=O)c1cn(C2COC2)c2cccc(Cl)c12)[C@@]12C[C@@H]3C[C@@H](C[C@@](O)(C3)C1)C2` [Compound 61, 4-Chloro-1-oxetan-3-yl-1H-indole-3-carboxylic acid [(3-hydroxy-adamantan-1-yl)-ethyl]-amide] the figure was 500 to 999 nM.
As to `COCCn1cc(C(=O)NCCC2(O)CCCC2)c2c(Cl)cccc21` [Compound 16, 4-Chloro-1-(2-methoxy-ethyl)-1H-indole-3-carboxylic acid [2-(1-hydroxy-cyclopentyl)-ethyl]-amide], the IC50 is 500 to 999 nM.
Take `O=C(N[C@@H](CO)C1CCCCC1)c1cn(C2COC2)c2cccc(Cl)c12` [Compound 63, 4-Chloro-1-oxetan-3-yl-1H-indole-3-carboxylic acid ((R)-1-cyclohexyl-2-hydroxy-ethyl)-amide]: the IC50 under setting [1] was over 1000 nM.
For the compound `CCOC(C)CNC(=O)c1cn(C2COC2)c2cccc(Cl)c12` (centres unmarked) [Compound 78, 4-Chloro-1-oxetan-3-yl-1H-indole-3-carboxylic acid (2-ethoxy-propyl)-amide], under setting [1], the IC50 is over 1000 nM.
The same measure, in the same setting: with `COCCn1cc(C(=O)NCc2cccc3c2OCCO3)c2c(Cl)cccc21` [Compound 23, 4-Chloro-1-(2-methoxy-ethyl)-1H-indole-3-carboxylic acid (2,3-dihydro-benzo[1,4]dioxin-5-ylmethyl)-amide] the figure was over 1000 nM.
Take `O=C(NCC1(O)CCCC2(CC2)C1)c1cn(C2COC2)c2cccc(Cl)c12` (centres unmarked) [Compound 57, 4-chloro-N-((5-hydroxyspiro[2.5]octan-5-yl)methyl)-1-(oxetan-3-yl)-1H-indole-3-carboxamide]: the IC50 was 101 to 500 nM.
Still for that read-out and setting: with `O=C(NC1(C2CCCCC2)CC1)c1cn(C2COC2)c2cccc(Cl)c12` [Compound 55, 4-Chloro-1-oxetan-3-yl-1H-indole-3-carboxylic acid (1-cyclohexyl-cyclopropyl)-amide] the figure was 101 to 500 nM.
